Measurements taken from PMC9658586, “1,4-Naphthoquinone Motif in the Synthesis of New Thiopyrano[2,3-d]thiazoles as Potential Biologically Active Compounds” (Molecules, 2022).

What was measured:
salmon sperm DNA = assay: Spectroscopic DNA interaction assay (KMnO4 oxidation); format: binding; details: DNA + compound + KMnO4, time- and concentration-dependent, up to 3 h; binder if >0.05 or <−0.05
Text: The method investigates conformational changes in the DNA; for example, when DNA is exposed to an intercalating, alkylation, or other classes of DNA-binding agents. It is based on the oxidative reaction of potassium permanganate with pyrimidine bases. Compounds that interact with DNA distort its duplex structure, thus exposing pyrimidine bases for oxidation by KMnO4, which generates products that can be detected by spectrophotometry. Different classes of DNA-binding compounds can be studied in such a way. […] Net A405 ranged from 0.00 to 0.50 in the presence of the compound, and Net A405 ranged from 0.02 to 0.045 in the control case (Figure 9).
A spectroscopic DNA interaction study was performed as previously described. salmon sperm DNA (Sigma-Aldrich, USA) was diluted in Milli-Q water at 4 °C for 24 h at 1.65 mg/mL. Tested compounds were dissolved in acetone. After 1 h of incubation of DNA and compound, KMnO4 was added to a final concentration of 0.3 mM and the absorbance at 405 nm was measured (Absorbance Reader BioTek ELx800) (BioTek Instruments, Inc., Winooski, VT, USA) in different periods up to 3 h. Appropriate controls of DNA alone and compound alone were included, and these Abs values were subtracted from the test sample to provide the net change in absorbance (NetAbs). […]

LOX IMVI/Melanoma = assay: NCI single-dose screen, LOX IMVI; format: cell-based, human; details: 10 μM, 48 h
Procedure: (§1) Considering the results of previous studies of fused thiazolidinones and their analogs, a series of thiopyrano[2,3-d]thiazoles with naphthoquinone fragments in the structure were studied for their anticancer activity. Thus, synthesized thiopyranothiazole derivatives 3.5 and 3.6 were selected by the National Cancer Institute (NCI), U.S., for their anticancer activity at 10 μM concentration toward a panel of sixty cancer cell lines representing nine different types (leukemia, melanoma, lung, colon, CNS, ovarian, renal, prostate, and breast cancers) (Figures S13–S14). Selection for screening based on new derivatives’ ability to add diversity to the NCI small molecules collection and anticancer assays were performed according to the NCI guidelines and protocols previously described. The compounds were added at the mentioned concentration, and the cell cultures were incubated for 48 h. The results for each compound were reported as the growth percent (GP%) of treated cells compared with untreated control cells.
(§2) Anticancer in vitro assay was performed on the human tumor cell lines panel derived from nine neoplastic diseases by the protocol of the Drug Evaluation Branch, National Cancer Institute, Bethesda, MD, USA [44, 45, 46]. […] GP% was spectrophotometrically evaluated vs. controls not treated with test agents.

UO-31/Renal Cancer = assay: NCI single-dose screen, UO-31; format: cell-based, human; details: 10 μM, 48 h
Procedure: as §1, §2

MCF7/Breast Cancer = assay: NCI single-dose screen, MCF7; format: cell-based, human; details: 10 μM, 48 h
Procedure: as §1, §2

A498/ Renal Cancer = assay: NCI single-dose screen, A498; format: cell-based, human; details: 10 μM, 48 h
Procedure: as §1, §2

SK-MEL-5/Melanoma = assay: NCI single-dose screen, SK-MEL-5; format: cell-based, human; details: 10 μM, 48 h
Procedure: (§3) Selection for screening based on new derivatives’ ability to add diversity to the NCI small molecules collection and anticancer assays were performed according to the NCI guidelines and protocols previously described. The compounds were added at the mentioned concentration, and the cell cultures were incubated for 48 h.
as §2, with “46]. Tested compounds were added to the culture at a single concentration (10^−5 M), and the cultures were incubated for 48 h.” for “46].”

COLO-205/ Colon Cancer = assay: NCI single-dose screen, COLO-205; format: cell-based, human; details: 10 μM, 48 h
Procedure: as §1, §2

M14/ADR-RES/ Melanoma = assay: NCI single-dose screen, M14/ADR-RES; format: cell-based, human; details: 10 μM, 48 h
Procedure: as §3
as §2, with “46]. Tested compounds were added to the culture at a single concentration (10^−5 M), and the cultures were incubated for 48 h.” for “46].”

SK-MEL-2/Melanoma = assay: NCI single-dose screen, SK-MEL-2; format: cell-based, human; details: 10 μM, 48 h
Procedure: as §1, §2

[1] = test system: SNB-75/ Central Nervous System Cancer; assay: NCI single-dose screen, SNB-75; format: cell-based, human; details: 10 μM, 48 h
Procedure: as §1, §2

Row | Structure (SMILES) | Net A405 (net change in absorbance) (salmon sperm DNA) | Most Sensitive Cell Line Growth, % (LOX IMVI/Melanoma) (LOX IMVI/Melanoma) [%] | Most Sensitive Cell Line Growth, % (UO-31/Renal Cancer) (UO-31/Renal Cancer) [%] | Most Sensitive Cell Line Growth, % (MCF7/Breast Cancer) (MCF7/Breast Cancer) [%] | Most Sensitive Cell Line Growth, % (A498/ Renal Cancer) (A498/ Renal Cancer) [%] | Most Sensitive Cell Line Growth, % (SK-MEL-5/Melanoma) (SK-MEL-5/Melanoma) [%] | Most Sensitive Cell Line Growth, % (COLO-205/ Colon Cancer) (COLO-205/ Colon Cancer) [%] | Most Sensitive Cell Line Growth, % (M14/ADR-RES/ Melanoma) (M14/ADR-RES/ Melanoma) [%] | Most Sensitive Cell Line Growth, % (SK-MEL-2/Melanoma) (SK-MEL-2/Melanoma) [%] | Most Sensitive Cell Line Growth, % (SNB-75/ Central Nervous System Cancer) [1] [%]
1 | O=C1C2=C(C(=O)c3ccccc31)C(CCc1ccccc1)c1sc(=O)[nH]c1S2 (stereo not shown) [Compound 3.6, 11-Phenethyl-3,11-dihydro-2H-benzo[6,7]thiochromeno[2,3-d]thiazole-2,5,10-trione] | 0.00 to 0.50 | 57.17 | 51.76 | 58.83 | – | – | – | – | – | –
2 | COc1cccc2c1C(=O)c1c(O)c3c(c(O)c1C2=O)C[C@@](O)(C(=O)CO)C[C@@H]3O[C@H]1C[C@H](N)[C@H](O)[C@H](C)O1 [Doxorubicin, doxorubicin, reference compound] | – | – | – | – | −75.10 | −86.40 | −81.60 | −71.60 | −82.60 | −76.10
